Patent US20100143899A1, “METHODS AND PRODUCTS FOR DIAGNOSING CANCER” (University of Vermont and State Agricultural College, priority 2005, published 2010)
“Also recorded” adds a separate entry of the source.

Tests used:
[1] = tested on: QPCT promoter region in MelJuSo melanoma cell line; experiment: Bisulfite sequencing of promoter region after 5AzadC treatment; format: cell-based, human; conditions: 48 h, bisulfite sequencing (FIG. 5)
Experimental: FIG. 5A represents the original sequence for comparison (SEQ ID NO:58).
Bisulfite sequencing and quantitative PCR. DNA was isolated from cells and tissues using standard phenol-chloroform extraction. Bisulfite modification was performed as previously described (24) on DNA from melanocytes, melanoma cell lines prior to and after 48 hr treatment with 5AzadC and DNA from melanoma tissues. PCR reactions were carried out using 50 ng of bisulfite modified DNA in a 30 μl volume with a 0.2 μM primer concentration (primer sequences are provided in the Table 2 with the amplified regions of selected genes provided in Table 3). PCR products were purified using the Qiaquick Gel Extraction kit (Qiagen) and directly sequenced on the ABI 3100-Avant automated DNA sequencer. Particular CpG sites were scored as positive if the C:T peak ratio exceeded 1:3 (at least 25% methylation). Real time quantitative PCR was performed for validation of microarray expression data of selected candidate genes by using 2.5 μl of 100 fold diluted cDNA template and 0.2 μM gene specific primers in a 25 μl PCR reaction using JumpStart SYBR green kit (Sigma) according to manufacturer's instructions in an ABI 7700. The reactions were performed in duplicate, CT values obtained were normalized to GAPDH levels and quantification was performed using the comparative CT method.

[2] = tested on: SYK mRNA in melanoma cell lines; experiment: Quantitative RT-PCR of SYK expression after 5AzadC treatment; format: cell-based, human; conditions: in a subset (4/8) of cell lines with SYK methylation
Experimental: (§1) 5AzadC treatment and microarray analysis. Cells were grown to 50% confluence in 100 mm culture plates and treated with 5 μM 5AzadC (Sigma; St. Louis, Mo.) dissolved in growth media. Fresh 5AzadC media was added every 24 hours until the end of the assay (96 hours). RNA and DNA were isolated from a batch of 5AzadC treated cells every 24 hours starting with 0 hour controls. RNA was isolated following 0 hr and 48 hr 5AzadC treatment of six melanoma cell lines (MelJuSo, UACC 903, c8161, Neo-6 c8161, WM1205 and WM35) and used for the re-expression microarray analysis. Total RNA was isolated using the RNeasy kit (Qiagen; Valencia, Calif.) according to manufacturer's instructions. […] Probe set signal calls with p values greater than 0.01 were not further evaluated. […]
(§2) Bisulfite sequencing and quantitative PCR. […] Particular CpG sites were scored as positive if the C:T peak ratio exceeded 1:3 (at least 25% methylation). Real time quantitative PCR was performed for validation of microarray expression data of selected candidate genes by using 2.5 μl of 100 fold diluted cDNA template and 0.2 μM gene specific primers in a 25 μl PCR reaction using JumpStart SYBR green kit (Sigma) according to manufacturer's instructions in an ABI 7700. The reactions were performed in duplicate, CT values obtained were normalized to GAPDH levels and quantification was performed using the comparative CT method.

[3] = tested on: methylated candidate genes in melanoma cell lines; experiment: Quantitative RT-PCR of candidate genes after 5AzadC treatment; format: cell-based, human; conditions: expression relative to melanocytes
Experimental: as §1, §2

[4] = tested on: HOXB13 mRNA in melanoma cell lines; experiment: Quantitative RT-PCR of HOXB13 expression after 5AzadC treatment; format: cell-based, human; conditions: in 2 out of 3 cell lines with promoter region methylation
Experimental: as §1, §2

[5] = tested on: six human melanoma cell lines (MelJuSo, UACC 903, c8161, Neo-6 c8161, WM1205 and WM35); experiment: Re-expression microarray analysis after 5AzadC treatment; format: cell-based; conditions: 5 μM 5AzadC, 48 hours, relative to untreated cells; in at least one of the six melanoma cell lines; HG U133A microarray
Experimental: as §1, with “instructions. Preparation of double stranded cDNA and in-vitro transcription (IVT) was as per manufacturer's recommendations. Biotinylated cRNA obtained from IVT were fragmented and hybridized on Human Genome U133A array as per manufacturer's recommendations (Affymetrix; Santa Clara, Calif.).” for “instructions.”
In order to determine DNA methylation-related expression changes, six human melanoma cell lines were treated with 5AzadC and compared for expression changes at 48 hours post-treatment relative to untreated melanoma cell lines. […] No DNA methylation was detected in primary human melanocytes at any of the loci. […]

Structure (SMILES): Nc1ncn([C@H]2C[C@H](O)[C@@H](CO)O2)c(=O)n1 [5AzadC, 5-Aza-2′-deoxycytidine]
- Demethylation of promoter region [1]: Demethylation was also induced; also recorded: demethylation of the promoter region
- Upregulation of SYK [2]: > 2 fold
- Reversal of loss of expression of promoter-methylated candidate genes [3]: could be reversed in the majority of cases
- Re-expression of HOXB13 [4]: Re-expression of HOXB13 occurred
- Increase of expression of 150 genes upon 5AzadC treatment [5]: greater than 4 fold
